Results on 13 compounds are retold here after ChEMBL document CHEMBL1201862, “PubChem BioAssay data set” (2004).

Each structure is given as a SMILES string. The source made the active and inactive calls. Some results are limits rather than exact numbers.

One assay deals with Streptococcus. Put plainly: Group A Streptococcus viability loss, dose response, counter-screen for streptokinase expression inhibitor project, luminescence, BacTiterGlo (AID 1915).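 Further: potency for reduction of bacterial viability or growth.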 Type of assay: functional, organism-based.
Assay [1] concerns the target T1, Methionyl-tRNA synthetase, putative (Trypanosoma brucei brucei, UniProt Q38C91).
T1 sequence (Q38C91 whole entry): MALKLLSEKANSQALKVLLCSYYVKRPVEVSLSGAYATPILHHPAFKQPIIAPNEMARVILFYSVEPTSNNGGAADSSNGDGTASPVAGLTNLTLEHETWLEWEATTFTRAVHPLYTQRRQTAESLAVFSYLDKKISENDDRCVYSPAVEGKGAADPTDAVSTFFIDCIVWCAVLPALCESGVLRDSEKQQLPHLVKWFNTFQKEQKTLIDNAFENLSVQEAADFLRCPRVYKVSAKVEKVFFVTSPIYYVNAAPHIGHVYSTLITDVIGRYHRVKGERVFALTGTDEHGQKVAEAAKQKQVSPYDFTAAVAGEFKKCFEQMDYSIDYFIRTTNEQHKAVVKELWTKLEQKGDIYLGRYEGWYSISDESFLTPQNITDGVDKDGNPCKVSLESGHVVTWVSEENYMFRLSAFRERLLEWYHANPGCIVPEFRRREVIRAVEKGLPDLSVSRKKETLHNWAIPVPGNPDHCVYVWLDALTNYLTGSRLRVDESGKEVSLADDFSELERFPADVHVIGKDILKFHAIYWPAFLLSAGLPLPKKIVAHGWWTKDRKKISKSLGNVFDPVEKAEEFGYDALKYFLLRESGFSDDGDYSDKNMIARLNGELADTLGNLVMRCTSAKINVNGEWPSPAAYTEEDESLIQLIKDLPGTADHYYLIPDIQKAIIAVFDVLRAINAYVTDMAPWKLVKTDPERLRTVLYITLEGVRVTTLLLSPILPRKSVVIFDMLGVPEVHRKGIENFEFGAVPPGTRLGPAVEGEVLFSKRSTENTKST
Type of assay: functional, Trypanosoma brucei brucei strain 927/4 GUTat10.1.

Assay [2] can be described thus: Counterscreen for inhibitors of Trypanosoma brucei methionyl tRNA synthetase (MetRS): Luminescence-based cell-based high throughput dose response assay to identify compounds that are cytotoxic to Jurkat human T lymphocyte cells. Type of assay: functional.
The subject of assay [3] is Streptococcus sp. 'group A'. Nature of the assay: growth inhibition of control SK(-) GAS strain, dose response, counter-screen for streptokinase expression inhibitor project, luminescence, kanamycin, BacTiterGlo, confirmation (AID 1900). Type of assay: functional, organism-based.
The target in assay [4] is T1, Methionyl-tRNA synthetase, putative. Format: functional, Trypanosoma brucei brucei strain 927/4 GUTat10.1. The source holds these as a separate data set.
For another assay, the target named is T2, Streptokinase A (Streptococcus pyogenes serotype M1, UniProt P10520).
T2 sequence (P10520 whole entry): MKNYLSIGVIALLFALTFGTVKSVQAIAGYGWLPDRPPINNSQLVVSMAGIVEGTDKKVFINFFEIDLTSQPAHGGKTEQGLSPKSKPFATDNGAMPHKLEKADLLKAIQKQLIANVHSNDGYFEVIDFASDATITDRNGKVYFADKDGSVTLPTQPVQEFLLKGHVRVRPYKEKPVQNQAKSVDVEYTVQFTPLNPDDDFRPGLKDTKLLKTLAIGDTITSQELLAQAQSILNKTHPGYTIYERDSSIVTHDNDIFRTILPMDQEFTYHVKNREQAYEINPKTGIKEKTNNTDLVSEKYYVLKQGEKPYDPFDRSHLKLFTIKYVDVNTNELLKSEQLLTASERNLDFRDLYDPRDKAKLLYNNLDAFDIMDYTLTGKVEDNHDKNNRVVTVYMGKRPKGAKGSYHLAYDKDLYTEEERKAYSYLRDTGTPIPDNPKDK
Put plainly: S. pyogenes streptokinase expression inhibitors, potency, dose response, plasminogen activation absorbance, OD405 (AID 1914).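 Further: secreted streptokinase activity via plasminogen activation per viability signal from cell pellet.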 Type of assay: functional, Streptococcus pyogenes M1 GAS.

A short description of assay [5]: Late stage counterscreen for inhibitors of Trypanosoma brucei methionyl tRNA synthetase (MetRS): Luminescence-based cell-based high throughput dose response assay to identify compounds that are cytotoxic to Jurkat human T lymphocyte cells. Format: functional.
For assay [6], the target named is T3, Oxysterols receptor LXR-beta (Homo sapiens, UniProt P55055).
T3 sequence (P55055 whole entry): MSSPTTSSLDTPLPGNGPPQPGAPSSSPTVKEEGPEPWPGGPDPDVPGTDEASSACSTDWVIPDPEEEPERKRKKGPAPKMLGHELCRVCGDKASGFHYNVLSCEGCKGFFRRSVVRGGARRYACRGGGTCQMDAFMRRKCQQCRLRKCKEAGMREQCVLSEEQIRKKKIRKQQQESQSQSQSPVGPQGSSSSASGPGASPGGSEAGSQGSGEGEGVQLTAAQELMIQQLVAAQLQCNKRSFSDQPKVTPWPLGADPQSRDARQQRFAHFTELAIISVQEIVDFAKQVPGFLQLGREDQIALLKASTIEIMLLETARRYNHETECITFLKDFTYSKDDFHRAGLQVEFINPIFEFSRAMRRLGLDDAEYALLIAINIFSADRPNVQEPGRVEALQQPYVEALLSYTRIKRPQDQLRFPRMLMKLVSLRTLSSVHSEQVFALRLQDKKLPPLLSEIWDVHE
Nature of the assay: LXR agonists, Gal4 luciferase reporter, dose response, counter-screen for ssDAF-12 agonist project, cell-based, luminescence, HEK293, S. stercoralis campaign (AID 720737). To be noted: read-out: IC50 (the source's name). Type of assay: functional.

Assay [7] is described as follows: Luminescence-based cell-based high throughput dose response assay to identify activators of the DAF-12 from the parasite S. stercoralis (ssDAF-12). Format: functional.
Assay [8] concerns the target Sphingosine 1-phosphate receptor 2 (Homo sapiens, UniProt O95136). Put plainly: Dose Response Cell Based Assay for Agonists of the S1P2 Receptor. [Related pubchem assays: 729, 736, 843 ]. Type of assay: functional.
Assay [9] can be described thus: inhibitors of Vif binding to APOBEC3G peptide, primary screen, biochemical, TR-FRET, GST-Vif 1-94, biotin-A3G peptide, dose response retest (AID 1117319).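 Further: TR-FRET signal of purified GST-Vif binding a biotinylated A3G peptide; inhibitors lower the FRET signal by blocking Vif and A3G binding.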 Format: functional.
Assay [10] addresses T4, Tyrosine-protein phosphatase non-receptor type 7 (Homo sapiens, UniProt P35236).
T4 sequence (P35236 whole entry): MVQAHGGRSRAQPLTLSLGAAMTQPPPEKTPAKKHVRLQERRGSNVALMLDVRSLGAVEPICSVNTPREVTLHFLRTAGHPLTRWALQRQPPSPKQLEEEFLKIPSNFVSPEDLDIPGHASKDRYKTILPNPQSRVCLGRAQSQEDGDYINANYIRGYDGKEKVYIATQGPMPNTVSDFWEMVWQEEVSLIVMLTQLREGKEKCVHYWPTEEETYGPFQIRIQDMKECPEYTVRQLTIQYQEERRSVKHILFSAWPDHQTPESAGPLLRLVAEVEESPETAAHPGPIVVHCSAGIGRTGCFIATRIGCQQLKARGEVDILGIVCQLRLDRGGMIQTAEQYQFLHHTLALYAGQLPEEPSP
Put plainly: inhibitors of human HePTP phosphatase, […], biochemical, absorbance, leukemia target (AID 521). Format: functional.

The next assay has as its target T5, Protein Tat (Human immunodeficiency virus type 1 group M subtype B (isolate HXB2)(HIV-1), UniProt P04608).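 Further: tat binding to TAR RNA read out by fluorescence polarization.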
T5 sequence (P04608 whole entry): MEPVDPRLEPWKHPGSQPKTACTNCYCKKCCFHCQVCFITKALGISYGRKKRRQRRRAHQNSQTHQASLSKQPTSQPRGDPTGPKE
Type of assay: functional.

Assay [11] in a line: THP-1 cell cytotoxicity, dose response, cytotoxicity control for Vif-APOBEC3G degradation inhibitor project, THP-1 cells (AID 1117359). Format: functional. To be noted: Human immunodeficiency virus 1, THP-1.
Assay [12] has as its target T6, Mannose-6-phosphate isomerase (Homo sapiens, UniProt P34949).
T6 sequence (P34949 whole entry): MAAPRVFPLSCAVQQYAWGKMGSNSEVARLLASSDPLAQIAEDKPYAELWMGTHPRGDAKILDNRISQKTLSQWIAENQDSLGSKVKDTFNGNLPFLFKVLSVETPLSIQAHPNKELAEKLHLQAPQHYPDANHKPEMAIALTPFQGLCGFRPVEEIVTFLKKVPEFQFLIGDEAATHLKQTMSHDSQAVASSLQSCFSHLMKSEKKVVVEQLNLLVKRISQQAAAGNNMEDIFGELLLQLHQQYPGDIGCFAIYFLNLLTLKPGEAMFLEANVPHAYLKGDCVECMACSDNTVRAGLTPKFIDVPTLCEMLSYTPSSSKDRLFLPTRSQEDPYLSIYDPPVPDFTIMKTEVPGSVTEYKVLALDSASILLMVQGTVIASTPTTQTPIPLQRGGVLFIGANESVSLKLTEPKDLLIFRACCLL
Nature of the assay: human PMI inhibitors, high substrate, primary screen, biochemical, fluorescence intensity, high mannose 6-phosphate (AID 1220).

The target in assay [13] is T6, Mannose-6-phosphate isomerase. Nature of the assay: inhibitors of human PMI, primary screen, biochemical, fluorescence intensity, coupled assay (AID 1209).
Assay [14] addresses T7, Polyadenylate-binding protein 1 (Homo sapiens, UniProt P11940). Nature of the assay: PABP1 MLLE–PAM2 interaction inhibitors, dose response, miRNA deadenylation inhibitor project, biochemical, fluorescence polarization, Cy5-PAM2 peptide, secondary (AID 602260). Format: functional. To be noted: read-out: IC50_Mean.
Assay [15] has as its target T7, Polyadenylate-binding protein 1. Nature of the assay: PABP1 MLLE–PAM2 binding inhibitor potency, dose response, biochemical, fluorescence polarization, FITC-PAM2 peptide (AID 602259). To be noted: read-out: IC50_Mean. Format: functional.
A further assay deals with Genome polyprotein (dengue virus type 2, UniProt P29990). Put plainly: Dengue-2 NS5 methyltransferase inhibitors, primary screen, biochemical, confirmation dose response (AID 588689). Type of assay: functional.
Another assay concerns the target Caspase-6 (Homo sapiens, UniProt P55212). Nature of the assay: human caspase-6 inhibitors, dose response, biochemical, VEID-R110 fluorescence, cherry-pick (AID 720632).
The target in assay [16] is T8, NAD-dependent protein deacylase sirtuin-5, mitochondrial (Homo sapiens, UniProt Q9NXA8). Put plainly: SIRT5 desuccinylase inhibitors, dose response, biochemical, fluorescence imaging, cherry-pick, set 5 (AID 720591).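 Further: desuccinylation of succinyl peptide AMC substrate read as fluorescence after trypsin release; potency of inhibitors that lower fluorescence and may act on trypsin instead.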
For assay [17], the target named is T8, NAD-dependent protein deacylase sirtuin-5, mitochondrial. Nature of the assay: SIRT5 deacylase inhibitors, dose response, biochemical, fluorescence imaging, cherry-pick, set 6 (AID 720597).
In the next assay the target is T9, Bcl-2-like protein 10 (Homo sapiens, UniProt Q9HD36).
T9 sequence (Q9HD36 whole entry): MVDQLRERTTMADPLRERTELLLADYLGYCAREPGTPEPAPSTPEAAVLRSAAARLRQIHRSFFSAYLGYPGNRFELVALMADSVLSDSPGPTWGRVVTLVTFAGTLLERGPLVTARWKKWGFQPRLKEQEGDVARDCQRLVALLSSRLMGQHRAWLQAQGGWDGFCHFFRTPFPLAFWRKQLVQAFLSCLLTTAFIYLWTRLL
Nature of the assay: displacers of TR3 peptide from Bcl-B, primary screen, selectivity assay for Bfl-1 inhibitor project, biochemical, fluorescence polarization, FITC-TR3 peptide (AID 748).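 Further: fluorescence polarization from a fluorescein-labelled TR3 peptide binding purified Bcl-B.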

T8 sequence (Q9NXA8 whole entry): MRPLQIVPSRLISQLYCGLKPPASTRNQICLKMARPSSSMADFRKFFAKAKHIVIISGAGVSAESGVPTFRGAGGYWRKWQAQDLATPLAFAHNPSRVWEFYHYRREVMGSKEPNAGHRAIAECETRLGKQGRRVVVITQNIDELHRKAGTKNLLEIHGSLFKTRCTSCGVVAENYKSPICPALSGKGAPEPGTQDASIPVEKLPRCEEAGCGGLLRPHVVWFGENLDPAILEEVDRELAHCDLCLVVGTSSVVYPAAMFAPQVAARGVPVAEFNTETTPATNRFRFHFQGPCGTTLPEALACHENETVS
T7 sequence (P11940 whole entry): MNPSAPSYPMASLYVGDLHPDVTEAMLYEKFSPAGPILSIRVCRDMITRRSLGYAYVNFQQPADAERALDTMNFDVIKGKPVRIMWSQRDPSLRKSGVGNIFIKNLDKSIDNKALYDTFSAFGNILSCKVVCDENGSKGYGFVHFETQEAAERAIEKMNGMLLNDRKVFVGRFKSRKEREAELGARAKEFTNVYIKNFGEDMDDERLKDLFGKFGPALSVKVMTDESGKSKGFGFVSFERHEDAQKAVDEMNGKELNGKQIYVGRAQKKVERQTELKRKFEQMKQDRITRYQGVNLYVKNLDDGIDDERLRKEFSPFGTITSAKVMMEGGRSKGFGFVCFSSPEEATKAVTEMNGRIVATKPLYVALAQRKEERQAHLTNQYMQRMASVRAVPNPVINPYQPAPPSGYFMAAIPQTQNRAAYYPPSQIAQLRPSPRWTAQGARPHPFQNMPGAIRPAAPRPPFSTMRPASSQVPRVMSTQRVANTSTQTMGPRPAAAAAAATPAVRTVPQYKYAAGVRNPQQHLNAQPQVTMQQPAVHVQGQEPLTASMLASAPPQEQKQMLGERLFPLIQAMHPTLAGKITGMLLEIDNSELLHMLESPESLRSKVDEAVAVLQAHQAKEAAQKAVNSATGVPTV
Sphingosine 1-phosphate receptor 2, sequence (O95136 whole entry): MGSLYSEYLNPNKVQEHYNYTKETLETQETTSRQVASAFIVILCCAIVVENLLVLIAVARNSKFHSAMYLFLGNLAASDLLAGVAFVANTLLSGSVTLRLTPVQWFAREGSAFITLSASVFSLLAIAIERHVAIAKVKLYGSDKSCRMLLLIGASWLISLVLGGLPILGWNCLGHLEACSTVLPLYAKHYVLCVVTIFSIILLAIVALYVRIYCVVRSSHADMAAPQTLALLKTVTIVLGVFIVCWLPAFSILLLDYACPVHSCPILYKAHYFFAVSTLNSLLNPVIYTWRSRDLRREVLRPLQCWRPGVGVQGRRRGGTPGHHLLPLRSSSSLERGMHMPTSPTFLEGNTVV
Caspase-6, sequence (P55212 24-179 limits assumed): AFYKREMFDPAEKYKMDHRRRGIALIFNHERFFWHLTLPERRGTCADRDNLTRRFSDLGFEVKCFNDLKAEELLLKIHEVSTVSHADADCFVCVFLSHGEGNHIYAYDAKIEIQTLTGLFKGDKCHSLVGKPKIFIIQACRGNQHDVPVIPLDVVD
Caspase-6, sequence (P55212 194-293 limits assumed): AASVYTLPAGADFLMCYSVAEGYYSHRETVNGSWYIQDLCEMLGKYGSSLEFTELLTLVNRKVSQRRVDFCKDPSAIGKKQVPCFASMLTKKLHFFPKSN
Genome polyprotein, sequence (P29990 2492-3391 limits assumed): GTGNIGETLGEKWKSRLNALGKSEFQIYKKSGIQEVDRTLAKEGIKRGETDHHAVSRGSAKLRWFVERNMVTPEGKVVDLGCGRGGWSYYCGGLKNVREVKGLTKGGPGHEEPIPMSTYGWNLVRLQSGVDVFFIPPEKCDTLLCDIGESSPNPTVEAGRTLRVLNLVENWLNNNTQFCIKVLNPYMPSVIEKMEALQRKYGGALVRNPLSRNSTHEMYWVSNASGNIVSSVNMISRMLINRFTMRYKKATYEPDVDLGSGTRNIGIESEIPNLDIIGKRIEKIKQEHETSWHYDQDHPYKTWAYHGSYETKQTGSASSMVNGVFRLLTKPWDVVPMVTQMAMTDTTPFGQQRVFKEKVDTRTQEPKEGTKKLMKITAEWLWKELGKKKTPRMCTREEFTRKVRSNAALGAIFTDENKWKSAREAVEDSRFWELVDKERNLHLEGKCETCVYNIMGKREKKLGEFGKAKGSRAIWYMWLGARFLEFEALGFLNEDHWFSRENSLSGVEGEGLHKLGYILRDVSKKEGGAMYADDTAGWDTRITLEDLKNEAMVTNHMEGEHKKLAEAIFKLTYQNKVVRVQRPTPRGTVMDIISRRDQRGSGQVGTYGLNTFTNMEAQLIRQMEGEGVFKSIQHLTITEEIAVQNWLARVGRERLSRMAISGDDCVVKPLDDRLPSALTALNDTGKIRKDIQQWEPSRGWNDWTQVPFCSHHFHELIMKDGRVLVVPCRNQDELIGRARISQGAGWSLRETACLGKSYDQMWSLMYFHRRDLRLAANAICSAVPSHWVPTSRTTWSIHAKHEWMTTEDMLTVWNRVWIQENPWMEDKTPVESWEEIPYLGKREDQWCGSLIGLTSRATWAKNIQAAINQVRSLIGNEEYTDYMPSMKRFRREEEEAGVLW

As for `O=C1CC(N(CCc2ccccc2)C(=S)Nc2ccccc2)C(=O)N1c1ccc(Br)cc1` (configuration not stated), the EC50 in the assay on Streptococcus is 18.3 µM (active); in assay [3], 2.87 µM (active); on Streptokinase A it was 2.67 µM (active). Moreover, the IC50 in [1] is 0.743 µM (active); in [2] it was 25.3 µM (inactive); in [4], 0.46 µM (active); in assay [5] it was 15.4 µM (inactive).

`Cc1cc(NC(=S)NC(=O)/C=C/c2ccc(S(=O)(=O)N3CCOCC3)cc2)ccc1Br`: the EC50 in assay [6] was > 67.5 µM (inactive). Further, the IC50 in [7] is > 67.5 µM (inactive).

As to `COc1ccccc1CNC(=O)c1c(N)n(CCCN2CCOCC2)c2nc3ccccc3nc12`, the EC50 in assay [8] is 3.9 µM (active).

On to `C[C@@H]1NC(=O)[C@H](CCC(N)=O)NC(=O)c2cc([N+](=O)[O-])cc(I)c2NCCC[C@@H](C(N)=O)NC1=O`, for which the IC50 in assay [9] was > 100 µM (active).

For the compound `Oc1ccccc1C1NN=C(c2ccccc2)S1` (configuration not stated), the EC50 in assay [6] is > 67.5 µM (inactive). Further, the IC50 in [7] is > 67.5 µM (inactive).

With `CCc1nnc(NC(=O)CSc2nnc(-c3ccoc3C)n2CC(C)C)s1`, the IC50 in [10] was > 100 µM (not active).

For `COc1cc(CNc2ccc3[nH]c(O)nc3c2)cc(Cl)c1OCC(=O)NC(C)(C)C`, the IC50 on Protein Tat is 50.5 µM (inconclusive); in assay [9], > 51.4 µM (active); in [12], > 50 µM (not active); in assay [13] it was > 50 µM (not active). In assay [11], the CC50 was > 40 µM (active).

As for `O=[N+]([O-])c1cc2ccccc2c(O)c1O`, the IC50 in assay [14] was > 66 µM (inactive); in assay [15], > 66 µM (inactive); on Genome polyprotein, 7.79 µM (active). The AC50 at Caspase-6 was 13.4 µM (active).

Regarding `COc1ccccc1-n1c(SCC(=O)Nc2ccc(Cl)cc2)nc(=O)c(Cc2ccccc2)c1O`, the IC50 in assay [1] is 5.59 µM (active); in assay [2] it was 74.5 µM (inactive); in [4], 5.07 µM (active); in assay [5], 77.1 µM (inactive).

As for `O=C(O)C1=C2C(=O)Nc3cccc(c32)C2(C1)C(=O)Nc1ccccc12` (configuration not stated), the concentration at half-maximal activity (AC50) in assay [16] is 25.1 µM (active).

Consider `Cc1ccc(S(=O)(=O)Nc2ccc3c(c2)C(=O)N([C@@H](C)CO)C[C@@H](C)[C@H](CN(C)S(=O)(=O)c2ccc(F)cc2)OCCCC[C@@H](C)O3)cc1`, for which the AC50 in assay [17] was > 30 µM (inactive).

With `O=C(c1ccccc1F)N1C[C@H]2[C@@H](c3ccccc31)[C@@H](CO)N2CC1CCCCC1`, the AC50 in assay [17] was > 30 µM (inactive).

In the case of `C/C(N)=C(/C#N)C(=O)CSc1nnc(Nc2c(C)cccc2C)s1`, the IC50 at Bcl-2-like protein 10 was 17.2 µM (active); in [10] it was 30.2 µM (active).
